In data set [1] the test system is NSCLC patients. The following applies: single agent; patients for whom standard therapy for advanced disease has failed; cited from earlier work.
The subject of the next data set is H358 cells. Nature of the data set: Testing EMT transition on H358 NSCLC cell line (TGFbeta3 treatment, western blot). The data set is classed as cell-based, human. The following applies: 10 ng/mL TGFbeta3 plus compound 5 μM; for Level of E-cadherin: up to 13 days. The procedure:
Cell culture medium was renewed every 3 days. Cell lysis was performed in PBS containing 1% NP-40 and protease inhibitors. After clearing by centrifugation at 12,000 g for 15 min at 4° C., proteins were separated by SDS-PAGE and processed for western blot analysis. Images were acquired using a compact digital camera (Luminescent Image Analyzer: Fujifilm, Tokyo, Japan) and quantified with ImageQuant TL (GE Healthcare, Waukesha, Wis., USA).
On the technique in general: Immunoblotting shows a protein as a band on a membrane.

For another data set, the target named is ILK (Homo sapiens, UniProt Q13418). The following applies: H292 cell lysate preincubated with free compound (0-400 μM), then beads with immobilized compound.
The next data set deals with alpha-parvin (Homo sapiens, UniProt Q9NVD7). The following applies: H292 cell lysate preincubated with free compound (0-400 μM), then beads with immobilized compound.
The target in another data set is PINCH (Homo sapiens, UniProt P48059). The following applies: H292 cell lysate preincubated with free compound (0-400 μM), then beads with immobilized compound.
Data set [2] has as its system NSCLC patients. The following applies: unselected patient population; cited from earlier work.
A further data set deals with patients with NSCLC. The following applies: second line after cisplatin-based first-line regimens failed; ECOG 0, 1 or 2; cited from earlier work.
A further data set concerns NSCLC. The following applies: second line therapy of NSCLC; cited from earlier work.

Counter-ions that a name gives are not always drawn.

Sequence of alpha-parvin (Q9NVD7 2-372 limits assumed): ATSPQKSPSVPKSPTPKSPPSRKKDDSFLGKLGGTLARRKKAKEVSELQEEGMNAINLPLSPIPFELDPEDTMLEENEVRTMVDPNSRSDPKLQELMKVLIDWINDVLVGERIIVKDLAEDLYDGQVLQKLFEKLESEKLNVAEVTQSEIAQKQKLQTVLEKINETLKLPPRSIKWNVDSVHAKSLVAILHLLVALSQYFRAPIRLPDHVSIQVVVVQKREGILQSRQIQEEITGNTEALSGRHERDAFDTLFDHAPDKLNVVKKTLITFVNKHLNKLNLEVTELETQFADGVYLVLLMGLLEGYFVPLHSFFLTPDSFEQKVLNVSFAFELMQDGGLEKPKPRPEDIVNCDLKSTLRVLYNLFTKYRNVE
Sequence of alpha-parvin (Q13418 whole entry partner): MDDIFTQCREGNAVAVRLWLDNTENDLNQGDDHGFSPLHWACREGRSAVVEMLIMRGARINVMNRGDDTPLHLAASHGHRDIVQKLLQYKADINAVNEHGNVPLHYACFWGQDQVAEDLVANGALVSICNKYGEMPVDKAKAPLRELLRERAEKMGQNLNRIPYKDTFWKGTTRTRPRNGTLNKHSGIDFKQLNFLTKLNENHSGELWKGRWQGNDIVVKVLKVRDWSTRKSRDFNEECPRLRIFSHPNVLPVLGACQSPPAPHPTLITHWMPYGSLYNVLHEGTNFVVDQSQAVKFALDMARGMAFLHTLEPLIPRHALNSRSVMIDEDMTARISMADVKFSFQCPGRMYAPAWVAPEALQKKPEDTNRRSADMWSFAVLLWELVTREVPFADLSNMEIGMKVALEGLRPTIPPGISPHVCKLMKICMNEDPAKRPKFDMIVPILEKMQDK
Sequence of alpha-parvin (P48059 2-325 partner limits assumed): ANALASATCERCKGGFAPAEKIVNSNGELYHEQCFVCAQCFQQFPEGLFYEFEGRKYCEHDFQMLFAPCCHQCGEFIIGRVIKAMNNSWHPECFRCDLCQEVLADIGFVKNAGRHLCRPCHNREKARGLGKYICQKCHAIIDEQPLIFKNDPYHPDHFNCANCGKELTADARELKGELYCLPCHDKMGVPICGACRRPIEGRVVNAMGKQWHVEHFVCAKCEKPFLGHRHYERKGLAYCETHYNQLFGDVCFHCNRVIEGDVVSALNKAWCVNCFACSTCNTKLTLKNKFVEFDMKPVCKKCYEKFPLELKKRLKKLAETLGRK
Sequence of PINCH (P48059 2-325): as the sequence (P48059 2-325 partner limits assumed) above
Sequence of PINCH (Q13418 whole entry partner): as the sequence (Q13418 whole entry partner) above
Sequence of PINCH (Q9NVD7 2-372 partner): as the sequence (Q9NVD7 2-372 limits assumed) above
Sequence of ILK (Q13418 whole entry): as the sequence (Q13418 whole entry partner) above

In the case of `C#Cc1cccc(Nc2ncnc3cc(OCCOC)c(OCCOC)cc23)c1` [Erlotinib hydrochloride, erlotinib hydrochloride], the “Survival of NSCLC patients” value with NSCLC patients [1] was “significantly prolongs and improves the survival”. In addition, in the data set with H358 cells, the ILK expression level entry is recorded as “do not change”, the PINCH expression level result was “do not change” and the “Level of E-cadherin” value is recorded as “remained unchanged”. Besides, the “Signal Reduction (%) ILK” value at ILK is given as 77.3%. Moreover, the “Signal Reduction (%) alpha-parvin” value on alpha-parvin came out at 79.5%. The “Signal Reduction (%) PINCH” value on PINCH was determined as 87.7%.
On to `COc1cc2ncnc(Nc3ccc(F)c(Cl)c3)c2cc1OCCCN1CCOCC1` [Gefitinib, gefitinib], for which, in the data set with H358 cells, the ILK expression level entry is given as “not so pronounced”, the PINCH expression level result was “not so pronounced” and the “Level of E-cadherin” value was “fails to inhibit the TGFb3-mediated decrease of E-cadherin levels”. For the same molecule, the Clinical benefit entry with NSCLC patients [2] is “does not seem to confer clinical benefit”. Moreover, the “Signal Reduction (%) alpha-parvin” value on alpha-parvin was 0.0%. The “Signal Reduction (%) PINCH” value on PINCH is reported as 0.0%.
As for `CC(=O)O[C@@]12CO[C@@H]1C[C@H](O)[C@@]1(C)C(=O)[C@H](O)C3=C(C)[C@@H](OC(=O)[C@H](O)[C@@H](NC(=O)OC(C)(C)C)c4ccccc4)C[C@@](O)([C@@H](OC(=O)c4ccccc4)[C@H]21)C3(C)C` [docetaxel], the Survival result in the data set on patients with NSCLC is reported as “improved survival”.
Take `Nc1nc2[nH]cc(CCc3ccc(C(=O)N[C@@H](CCC(=O)O)C(=O)O)cc3)c2c(=O)[nH]1` [pemetrexed]: in the data set with NSCLC, the “Efficacy compared with docetaxel” value is “clinically equivalent efficacy” and the “Side effects compared with docetaxel” value is given as “significantly fewer side effects”.

The values above are taken from US20120095029A1, “IPP COMPLEX AS MARKER FOR ERLOTINIB TREATMENT” (Hoffmann-La Roche Inc., priority 2010, published 2012).
